Data from US9695155B2, “Herbicidal substituted pyrimidinyloxy benzene compounds” (E. I. DU PONT DE NEMOURS AND COMPANY, priority 2013, dated 2017).

How the values were obtained:
ragweed = test: Test C postemergence; assay type: in vivo, Ambrosia elatior
How it was run: (§1)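 Seeds are planted in blended loam soil and sand and treated preemergence, while seedlings in a peat moss/vermiculite medium receive postemergence sprays at 2 to 18 cm height. All plants stay in the greenhouse for 13 to 15 days before visual comparison with controls on a 0–100 scale.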

lambsquarters = test: Test C postemergence; assay type: in vivo, Chenopodium album
How it was run: as §1

Heteranthera limosa = test: Test B flooded paddy test; assay type: in vivo; details: Flood, 250 g ai/ha; 0 to 100 scale where 0 is no effect and 100 is complete control
How it was run: (§2)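 Seedlings are raised to two leaves, flooded to a depth of 3 cm and dosed by adding the compound to the floodwater. Water level is kept constant, and plants are scored visually versus controls 13–15 days later (0 = no effect, 100 = complete control).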

wheat = test: Test A preemergence; assay type: in vivo, Triticum aestivum
How it was run: (§3)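 Visual 0–100 rating (100 = complete control) taken about 10 d post-treatment relative to untreated checks. Preemergence: directed soil spray on sown loam/sand pots. Postemergence: seedlings 2–10 cm, 1–2 leaf. Non-phytotoxic solvent formulation with surfactant.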

giant foxtail = test: Test A preemergence; assay type: in vivo, Setaria faberii
How it was run: as §3

barnyardgrass [1] = test: Test B flooded paddy test; assay type: in vivo, Echinochloa crus-galli; details: Flood, 250 g ai/ha; 0 to 100 scale where 0 is no effect and 100 is complete control
How it was run: as §2

velvetleaf = test: Test C postemergence; assay type: in vivo, Abutilon theophrasti
How it was run: as §1

chickweed = test: Test C postemergence; assay type: in vivo, Stellaria media
How it was run: as §1

morningglory = test: Test C postemergence; assay type: in vivo, Ipomoea coccinea
How it was run: as §1

wheat, winter = test: Test C postemergence; assay type: in vivo, Triticum aestivum
How it was run: as §1

rice = test: Test B flooded paddy test; assay type: in vivo, Oryza sativa; details: Flood, 250 g ai/ha; 0 to 100 scale where 0 is no effect and 100 is complete control
How it was run: as §2

yellow nutsedge = test: Test C postemergence; assay type: in vivo, Cyperus esculentus
How it was run: as §1

sedge, umbrella = test: Test B flooded paddy test; assay type: in vivo, Cyperus difformis; details: Flood, 250 g ai/ha; 0 to 100 scale where 0 is no effect and 100 is complete control
How it was run: as §2

galium = test: Test C postemergence; assay type: in vivo, Galium aparine
How it was run: as §1

corn = test: Test A preemergence; assay type: in vivo, Zea mays
How it was run: as §3

barnyardgrass [2] = test: Test A preemergence; assay type: in vivo, Echinochloa crus-galli
How it was run: as §3

[3] = 16 g ai/ha, postemergence, 0 is no effect, 100 is complete control
[4] = 31 g ai/ha, postemergence, visual rating, scale 0 to 100 (0 no effect, 100 complete control), 13 to 15 days
[5] = 125 g ai/ha, postemergence, visual rating, scale 0 to 100 (0 no effect, 100 complete control)
[6] = Postemergence, 62 g ai/ha, scale 0 to 100 (0 no effect, 100 complete control), 13 to 15 days
[7] = 500 g ai/ha, 0 to 100 scale where 0 is no effect and 100 is complete control

## FC(F)c1cnn(-c2c(Br)cccc2Oc2ncc(Cl)cn2)c1 [Compound 232]
ragweed; [3]
  Plant response rating (0 to 100), Ragweed: 25
ragweed; [4]
  Ragweed plant response rating: 35
ragweed; [5]
  Plant response rating, Ragweed: 60
ragweed; [6]
  Plant response rating, Ragweed: 50
lambsquarters; [3]
  Plant response rating (0 to 100), Lambsquarters: 55
lambsquarters; [4]
  Lambsquarters plant response rating: 60
lambsquarters; [5]
  Plant response rating, Lambsquarters: 75
lambsquarters; [6]
  Plant response rating, Lambsquarters: 70
Heteranthera limosa
  Plant response rating, Ducksalad: 95
wheat; 125 g ai/ha
  Wheat plant response rating (0 to 100 scale): 0
wheat; [7]
  Wheat plant response rating: 10
Giant foxtail; 125 g ai/ha
  Foxtail, Giant plant response rating (0 to 100 scale): 90
Giant foxtail; [7]
  Foxtail, Giant plant response rating: 90
Barnyardgrass [1]
  Plant response rating, Barnyardgrass: 10
velvetleaf; [3]
  Plant response rating (0 to 100), Velvetleaf: 35
velvetleaf; [4]
  Velvetleaf plant response rating: 60
velvetleaf; [5]
  Plant response rating, Velvetleaf: 65
velvetleaf; [6]
  Plant response rating, Velvetleaf: 30
chickweed; [3]
  Plant response rating (0 to 100), Chickweed: 5
chickweed; [4]
  Chickweed plant response rating: 30
chickweed; [5]
  Plant response rating, Chickweed: 60
chickweed; [6]
  Plant response rating, Chickweed: 50
morningglory; [3]
  Plant response rating (0 to 100), Morningglory: 70
morningglory; [4]
  Morningglory plant response rating: 80
morningglory; [5]
  Plant response rating, Morningglory: 85
morningglory; [6]
  Plant response rating, Morningglory: 55
wheat, winter; [3]
  Plant response rating (0 to 100), Wheat: 0
wheat, winter; [4]
  Wheat plant response rating: 0
wheat, winter; [5]
  Plant response rating, Wheat: 5
wheat, winter; [6]
  Plant response rating, Wheat: 0
rice
  Plant response rating, Rice: 35
Yellow nutsedge; [3]
  Plant response rating (0 to 100), Nutsedge, Yellow: 5
Yellow nutsedge; [4]
  Nutsedge, Yellow plant response rating: 5
Yellow nutsedge; [5]
  Plant response rating, Nutsedge, Yellow: 5
Yellow nutsedge; [6]
  Plant response rating, Nutsedge, Yellow: 5
sedge, umbrella
  Plant response rating, Sedge, Umbrella: 80
galium; [3]
  Plant response rating (0 to 100), Galium: 65
galium; [4]
  Galium plant response rating: 70
galium; [5]
  Plant response rating, Galium: 95
galium; [6]
  Plant response rating, Galium: 80
corn; 125 g ai/ha
  Corn plant response rating (0 to 100 scale): 0
corn; [7]
  Corn plant response rating: 60
Barnyardgrass [2]; 125 g ai/ha
  Barnyardgrass plant response rating (0 to 100 scale, 0 is no effect, 100 is complete control): 60
Barnyardgrass [2]; [7]
  Barnyardgrass plant response rating: 100
